In patent US20100280053A1, “CyclopropylmethYl-[7-(5,7-dimethyl-benzo[1,2,5]thiodiazol-4-yl)-2,5,6-trimethyl-7H-pyrrolo[2,3-d]pyrimidin-4-yl]-4-propyl-amine as a CRF Antagonist” (NOVARTIS AG, priority 2003, published 2010):

Target: T1, human recombinant CRF1 (Homo sapiens, UniProt P34998)
T1 construct: expressed in transfected cells
T1 sequence (P34998 24-415): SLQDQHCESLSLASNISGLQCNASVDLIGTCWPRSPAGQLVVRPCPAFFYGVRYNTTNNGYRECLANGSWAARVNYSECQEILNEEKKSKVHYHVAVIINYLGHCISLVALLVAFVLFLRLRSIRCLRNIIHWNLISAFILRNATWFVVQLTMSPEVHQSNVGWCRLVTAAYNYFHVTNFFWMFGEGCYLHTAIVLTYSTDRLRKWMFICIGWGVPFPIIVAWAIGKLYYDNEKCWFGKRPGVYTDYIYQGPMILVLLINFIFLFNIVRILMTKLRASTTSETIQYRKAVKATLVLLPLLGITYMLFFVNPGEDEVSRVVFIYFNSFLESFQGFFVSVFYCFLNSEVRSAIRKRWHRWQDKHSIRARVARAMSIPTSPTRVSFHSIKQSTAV
Assay: Inhibition of CRF-stimulated cyclic AMP accumulation in CHO cells expressing human recombinant CRF1
Type: cell-based
Settings: CRF concentration-response curves in presence of antagonist (1 nM-1 μM)
Procedure: Chinese hamster ovary (CHO) cells expressing human recombinant CRF1 (Chen et al., Proc Natl Acad Sci USA 90, 8967-8971, 1993) are propagated in Dulbecco's modified Eagle medium supplemented with 10% foetal calf serum, non-essential aminoacids, 100 U/ml penicillin, 100 mg/l streptomycin and 1 g/l geneticin (G418). For cyblic AMP determinations, cells are grown to confluence in 24-multiwell plates. Stimulation of cyclic AMP accumulation by CRF (human/rat form) is measured in intact cells, using the [^3H]adenine labelling technique, as described previously (Schoeffter et al., Neuropharmacology 36, 429-437, 1997).
Concentration-response curves for CRF are constructed in the presence of putative antagonists (1 nM-1 μM) or vehicle (dimethyl sulfoxide 1% vol). IC50 values of antagonists are calculated by fitting the percent inhibition of the effect of CRF (10 nM) by increasing concentrations of the antagonists. The fit is done using the nonlinear logistic function of the Origin software package (OriginLab Corporation, Northampton, Mass., USA).

Q: Which “mode of CRF1 receptor antagonism” value does the source give for CCCN(CC1CC1)c1nc(C)nc2c1c(C)c(C)n2-c1c(C)cc(C)c2nsnc12 [compound of formula A, Cyclopropylmethyl-[7-(5,7-dimethyl-benzo[1,2,5]thiadiazol-4-yl)-2,5,6-trimethyl-7H-pyrrolo[2,3-d]pyrimidin-4-yl]-propyl-amine] here?
A: Its value is “non-competitive CRF1 receptor antagonist”.
